Measurements published in US11173146B2, “Selective activators of the intermediate conductance CA2+activated K+ channel KCa3.1 and their methods of use” (The Regents of the University of California, priority 2014, dated 2021).

Assays:
mKV1.3 = target: T1, mKV1.3 (Mus musculus, UniProt P16390); assay: KV1.3 current inhibition (L929 cells); assay type: cell-based
T1 construct: expressed in transfected cells; host or cells: L929
Source text: Cells, Cell lines and Clones. HEK-293 cells stably expressing hKCa2.1, rKCa2.2 and hKCa3.1 were obtained from Khaled Houamed (University of Chicago, Ill.) in 2002 and have been maintained in the Wulff laboratory at the University of California since then. The cloning of hKCa2.3 (19 CAG repeats) and hKCa3.1 has been previously described (Wulff et al., 2000). The hKCa2.3 clone was later stably expressed in COS-7 cells at Aurora Biosciences Corp., San Diego, Calif. […]
Electrophysiology. […] For manual experiments COS-7, HEK-293 or L929 cells were trypsinized, plated onto poly-L-lysine coated coverslips and typically recorded from between 20 min and 4 h after plating. […] Free Ca^2+ concentrations were calculated with MaxChelator assuming a temperature of 25° C., a pH of 7.2 and an ionic strength of 160 mM. To reduce contaminating currents from native chloride channels in COS-7 cells, KCa2.3 currents were recorded with an internal pipette solution containing (in mM): 145 K^+ aspartate, 2 MgCl2, 10 HEPES, 10 EGTA and 7.4 CaCl2 (500 nM free Ca^2+), pH 7.2, 290-310 mOsm. […] KV2.1, Kv1.3, and KV3.1 currents were recorded in normal Ringer solution with a Ca^2+-free KF-based pipette solution as previously described (Schmitz et al., 2005). HERG (KV11.1) currents were recorded with a 2-step pulse from −80 mV first to 20 mV for 1 sec and then to −50 mV for 1 sec. […]

KCa3.1 = KCa3.1 (Homo sapiens, UniProt O15554+P0DP23); assay: Inside-out patch Ca2+ concentration-response of KCa3.1
Source text: Symmetrical k^+ was used to obtain larger currents. […] Cells were clamped to a holding potential of at 0 mV and KCa currents were elicited by 200-ms voltage-ramps from −80 to 80 mV applied every 10 sec.

T1 sequence (P16390 whole entry): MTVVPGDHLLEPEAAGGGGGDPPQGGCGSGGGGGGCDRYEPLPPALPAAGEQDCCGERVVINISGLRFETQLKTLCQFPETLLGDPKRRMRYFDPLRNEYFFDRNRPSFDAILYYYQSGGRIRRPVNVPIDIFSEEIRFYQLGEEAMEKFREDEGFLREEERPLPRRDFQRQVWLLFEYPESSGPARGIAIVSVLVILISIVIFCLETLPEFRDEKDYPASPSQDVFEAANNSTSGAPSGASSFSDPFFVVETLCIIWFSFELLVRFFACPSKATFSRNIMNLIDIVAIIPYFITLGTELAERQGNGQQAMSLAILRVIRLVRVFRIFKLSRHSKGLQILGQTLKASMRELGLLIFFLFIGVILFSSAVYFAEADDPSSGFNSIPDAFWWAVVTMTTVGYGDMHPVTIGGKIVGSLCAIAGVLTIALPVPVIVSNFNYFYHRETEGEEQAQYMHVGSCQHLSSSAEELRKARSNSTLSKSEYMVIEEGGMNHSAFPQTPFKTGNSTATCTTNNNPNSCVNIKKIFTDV

Compound: Cc1cc2sc(N)nc2c2ccccc12 [SKA-111, 5-methylnaphtho[1,2-d]thiazol-2-amine]
- inhibition at 25 µM (mKV1.3; at 25 μM): 28.5 ± 2.3%

Compound: Cc1cc2nc(N)oc2c2ccccc12 [SKA-121, 5-Methylnaphtho[2,1-d]oxazol-2-amine]
- inhibition at 50 µM (mKV1.3; at 50 μM): 27.5 ± 7.2%
- maximal achievable KCa3.1 current (KCa3.1; 1 μM SKA-121, at 1 and 10 μM Ca2+): increased the maximal achievable current
- Hill coefficient of the Ca2+ concentration-response curve (KCa3.1; in presence of 1 μM SKA-121): ~3
